US10131652B2, “Pyrimidinyloxy benzene derivatives as herbicides” (E. I. DU PONT DE NEMOURS AND COMPANY, priority 2014, dated 2018)

Experiments:
Format in all cases: in vivo
[1] = test system: barnyardgrass (Echinochloa crus-galli); test: Test B pre-/postemergence plant response
Source text: (§1) Seeds of plant species selected from bamyardgrass (Echinochloa crus-galli), kochia (Kochia scoparia), ragweed (common ragweed, Ambrosia elatior), Italian ryegrass (Lolium multiflorum), large (Lg) crabgrass (Digitaria sanguinalis), giant foxtail (Setaria faberii), momingglory (Ipomoea spp.), pigweed (Amaranthus retroflexus), velvetleaf (Abutilon theophrasti), wheat (Triticum aestivum), and corn (Zea mays) were planted into a blend of loam soil and sand and treated preemergence with a directed soil spray using test chemicals formulated in a non-phytotoxic solvent mixture which included a surfactant. At the same time, plants selected from these crop and weed species and also blackgrass (Alopecurus myosuroides), and galium (catchweed bedstraw, Galium aparine) were planted in pots containing the same blend of loam soil and sand and treated with postemergence applications of test chemicals formulated in the same manner. Plants ranged in height from 2 to 10 cm and were in the one- to two-leaf stage for the postemergence treatment. Treated plants and untreated controls were maintained in a greenhouse for approximately 10 days, after which time all treated plants were compared to untreated controls and visually evaluated for injury. Plant response ratings, summarized in Table B, are based on a 0 to 100 scale where 0 is no effect and 100 is complete control. A dash (-) response means no test result.

corn (Zea mays) = test: Test B pre-/postemergence plant response; conditions: 0 to 100 scale (0 no effect, 100 complete control)
Source text: as §1

[2] = test system: giant foxtail (Setaria faberii); test: Test B pre-/postemergence plant response
Source text: as §1

[3] = test system: large (Lg) crabgrass (Digitaria sanguinalis); test: Test B pre-/postemergence plant response; conditions: 1000 g ai/ha, 0 to 100 scale (0 no effect, 100 complete control)
Source text: as §1

[4] = test system: morningglory (Ipomoea spp.); test: Test B pre-/postemergence plant response; conditions: 1000 g ai/ha, 0 to 100 scale (0 no effect, 100 complete control)
Source text: as §1

[5] = test system: pigweed (Amaranthus retroflexus); test: Test B pre-/postemergence plant response
Source text: as §1

[6] = test system: velvetleaf (Abutilon theophrasti); test: Test B pre-/postemergence plant response; conditions: 1000 g ai/ha, 0 to 100 scale (0 no effect, 100 complete control)
Source text: as §1

[7] = test system: wheat (Triticum aestivum); test: Test B pre-/postemergence plant response; conditions: 0 to 100 scale (0 no effect, 100 complete control)
Source text: as §1

[8] = test system: Italian ryegrass (Lolium multiflorum); test: Test B pre-/postemergence plant response; conditions: 500 g ai/ha
Source text: as §1

kochia (Kochia scoparia) = test: Test B pre-/postemergence plant response; conditions: 500 g ai/ha
Source text: as §1

[9] = test system: ragweed (common ragweed, Ambrosia elatior); test: Test B pre-/postemergence plant response; conditions: 500 g ai/ha
Source text: as §1

[10] = test system: blackgrass (Alopecurus myosuroides); test: Test B postemergence plant response; conditions: Postemergence, 500 g ai/ha; 0 to 100 scale (0 no effect, 100 complete control)
Source text: (§2) At the same time, plants selected from these crop and weed species and also blackgrass (Alopecurus myosuroides), and galium (catchweed bedstraw, Galium aparine) were planted in pots containing the same blend of loam soil and sand and treated with postemergence applications of test chemicals formulated in the same manner. Plants ranged in height from 2 to 10 cm and were in the one- to two-leaf stage for the postemergence treatment. Treated plants and untreated controls were maintained in a greenhouse for approximately 10 days, after which time all treated plants were compared to untreated controls and visually evaluated for injury. Plant response ratings, summarized in Table B, are based on a 0 to 100 scale where 0 is no effect and 100 is complete control. A dash (-) response means no test result.

[11] = test system: galium (catchweed bedstraw, Galium aparine); test: Test B postemergence plant response; conditions: Postemergence, 500 g ai/ha; 0 to 100 scale (0 no effect, 100 complete control)
Source text: as §2

[12] = Postemergence, 1000 g ai/ha, 0 to 100 scale (0 no effect, 100 complete control)
[13] = Preemergence, 1000 g ai/ha, 0 to 100 scale (0 no effect, 100 complete control)
[14] = Postemergence, 0 to 100 scale (0 no effect, 100 complete control)
[15] = Preemergence, 0 to 100 scale where 0 is no effect and 100 is complete control
[16] = Postemergence, 500 g ai/ha, 0 to 100 scale (0 no effect, 100 complete control)
[17] = Preemergence, 500 g ai/ha, 0 to 100 scale where 0 is no effect and 100 is complete control

SMILES: CN(C)c1ccc(-c2ccccc2Oc2ncc(Cl)cn2)cn1 [Compound 2]
- Plant response rating, Barnyardgrass [1, 12]: 0
- Plant response rating, Barnyardgrass [1, 13]: 0
- Plant response rating, Corn (corn (Zea mays); Postemergence, 1000 g ai/ha): 0
- Plant response rating, Corn (corn (Zea mays); Preemergence, 1000 g ai/ha): 0
- Plant response rating, Foxtail, Giant [2, 12]: 0
- Plant response rating, Foxtail, Giant [2, 13]: 10
- Plant response rating, Crabgrass, Large ([3]; Postemergence): 0
- Plant response rating, Crabgrass, Large ([3]; Preemergence): 10
- Plant response rating, Morningglory ([4]; Postemergence): 40
- Plant response rating, Morningglory ([4]; Preemergence): 0
- Plant response rating, Pigweed [5, 12]: 70
- Plant response rating, Pigweed [5, 13]: 100
- Plant response rating, Velvetleaf ([6]; Postemergence): 50
- Plant response rating, Velvetleaf ([6]; Preemergence): 20
- Plant response rating, Wheat ([7]; Postemergence, 1000 g ai/ha): 0
- Plant response rating, Wheat ([7]; Preemergence, 1000 g ai/ha): 0

SMILES: Clc1cnc(Oc2ccccc2-c2ncc(Cl)cn2)nc1 [Compound 3]
- Plant response rating, Barnyardgrass [1, 12]: 50
- Plant response rating, Barnyardgrass [1, 13]: 60
- Plant response rating, Corn (corn (Zea mays); Postemergence, 1000 g ai/ha): 10
- Plant response rating, Corn (corn (Zea mays); Preemergence, 1000 g ai/ha): 0
- Plant response rating, Foxtail, Giant [2, 12]: 20
- Plant response rating, Foxtail, Giant [2, 13]: 70
- Plant response rating, Crabgrass, Large ([3]; Postemergence): 10
- Plant response rating, Crabgrass, Large ([3]; Preemergence): 40
- Plant response rating, Morningglory ([4]; Postemergence): 60
- Plant response rating, Morningglory ([4]; Preemergence): 0
- Plant response rating, Pigweed [5, 12]: 70
- Plant response rating, Pigweed [5, 13]: 50
- Plant response rating, Velvetleaf ([6]; Postemergence): 100
- Plant response rating, Velvetleaf ([6]; Preemergence): 90
- Plant response rating, Wheat ([7]; Postemergence, 1000 g ai/ha): 10
- Plant response rating, Wheat ([7]; Preemergence, 1000 g ai/ha): 0

SMILES: Brc1cnc(Oc2ccccc2-c2nnco2)nc1 [Compound 5]
- Plant response rating, Barnyardgrass [1, 12]: 20
- Plant response rating, Barnyardgrass [1, 13]: 0
- Plant response rating, Corn (corn (Zea mays); Postemergence, 1000 g ai/ha): 0
- Plant response rating, Corn (corn (Zea mays); Preemergence, 1000 g ai/ha): 0
- Plant response rating, Foxtail, Giant [2, 12]: 0
- Plant response rating, Foxtail, Giant [2, 13]: 0
- Plant response rating, Crabgrass, Large ([3]; Postemergence): 0
- Plant response rating, Crabgrass, Large ([3]; Preemergence): 0
- Plant response rating, Morningglory ([4]; Postemergence): 20
- Plant response rating, Morningglory ([4]; Preemergence): 0
- Plant response rating, Pigweed [5, 12]: 70
- Plant response rating, Pigweed [5, 13]: 90
- Plant response rating, Velvetleaf ([6]; Postemergence): 30
- Plant response rating, Velvetleaf ([6]; Preemergence): 20
- Plant response rating, Wheat ([7]; Postemergence, 1000 g ai/ha): 0
- Plant response rating, Wheat ([7]; Preemergence, 1000 g ai/ha): 0

SMILES: Clc1cnc(Oc2ccccc2-c2nnco2)nc1 [Compound 6]
- Plant response rating, Barnyardgrass [1, 12]: 0
- Plant response rating, Barnyardgrass [1, 13]: 0
- Plant response rating, Corn (corn (Zea mays); Postemergence, 1000 g ai/ha): 0
- Plant response rating, Corn (corn (Zea mays); Preemergence, 1000 g ai/ha): 0
- Plant response rating, Foxtail, Giant [2, 12]: 0
- Plant response rating, Foxtail, Giant [2, 13]: 0
- Plant response rating, Crabgrass, Large ([3]; Postemergence): 20
- Plant response rating, Crabgrass, Large ([3]; Preemergence): 0
- Plant response rating, Morningglory ([4]; Postemergence): 20
- Plant response rating, Morningglory ([4]; Preemergence): 0
- Plant response rating, Pigweed [5, 12]: 70
- Plant response rating, Pigweed [5, 13]: 70
- Plant response rating, Velvetleaf ([6]; Postemergence): 30
- Plant response rating, Velvetleaf ([6]; Preemergence): 20
- Plant response rating, Wheat ([7]; Postemergence, 1000 g ai/ha): 0
- Plant response rating, Wheat ([7]; Preemergence, 1000 g ai/ha): 0

SMILES: ON=Cc1cc(-c2ccccc2Oc2ncc(Cl)cn2)no1 [Compound 37]
- Plant response rating, Ryegrass, Italian [8, 14]: 0
- Plant response rating, Ryegrass, Italian [8, 15]: 0
- Plant response rating, Barnyardgrass [1, 16]: 0
- Plant response rating, Barnyardgrass [1, 17]: 0
- Plant response rating, Corn (corn (Zea mays); Postemergence, 500 g ai/ha): 0
- Plant response rating, Foxtail, Giant [2, 16]: 10
- Plant response rating, Foxtail, Giant [2, 17]: 0
- Plant response rating, Kochia (kochia (Kochia scoparia); [14]): 0
- Plant response rating, Kochia (kochia (Kochia scoparia); [15]): 0
- Plant response rating, Pigweed [5, 16]: 20
- Plant response rating, Pigweed [5, 17]: 40
- Plant response rating, Ragweed [9, 14]: 0
- Plant response rating, Ragweed [9, 15]: 0
- Plant response rating, Wheat ([7]; Postemergence, 500 g ai/ha): 0
- Plant response rating, Blackgrass [10]: 0
- Plant response rating, Galium [11]: 0
